# Source: patent publication US20250289827A1, “MORPHIC FORMS OF A MUTANT BRAF DEGRADER AND METHODS OF MANUFACTURE THEREOF” (C4 THERAPEUTICS, INC., priority 2022, published 2025)
# Tests used:
# [1] = Wet granulation simulation experiments; type: physicochemical
# Experimental: Water or ethanol was added drop wise to about 20 mg of Compound 1 Form B until the sample was wetted sufficiently. Wet sample was ground gently with in a mortar and a pestle. Post granulation sample was dried under ambient condition for 10 min. Potential form change and degree of crystallinity were evaluated by XRPD.
# [2] = Solubility in aqueous pH buffers and bio-relevant fluids at 37° C.; type: physicochemical; settings: for Solubility 2 h / Solubility 24 h: LOQ: 1.5 μg/mL; for solubility at 2 h / solubility at 24 h: thermodynamic from solid
# Experimental: Solubility of the Form B and sodium salt Form F was measured in 7 aqueous pH buffers and bio-relevant fluids including pH 1.2 HCl solution (0.2N), pH 4.5 acetate buffer (50 mM), pH 6.8 phosphate buffer (50 mM), pH 2.0 SGF, pH 6.5 FaSSIF-v1, pH 5.0 FeSSIF-v1 and water at 37° C. for 2 h and 24 h, respectively.
# Accurate 20 mg of the Form B was weighed into a 20 mL glass vial. Then, 10 mL of solubility medium was added. The sodium salt Form F amount used was equivalent to 20 mg anhydrous form. Obtained suspensions were stirred at 37° C. at 400 rpm and sampled at 2 hours and at 24 hours, respectively. The samples were centrifuged at 37° C. at 4,000 rpm for 4 min. Supernatants were analyzed by HPLC and pH meter for solubility and pH value, respectively. Residual solids (wet cakes) from the 24 hours samples were also characterized by XRPD to determine physical form.
# BRAF^V600E = BRAF^V600E (Homo sapiens, UniProt P15056, V600E); experiment: BRAF V600E degradation in A375 cells; type: cell-based; settings: 24 hr
# [3] = Plasma and brain pharmacokinetics in A375-luciferase intracranial model; set-up: species or system BALB/c nude mice; settings: mouse, in vivo
# Experimental: To determine the level of CNS and plasma exposure of Compound 1 compared to encorafenib, a separate pharmacokinetics/pharmacodynamics (PK/PD) study was conducted. Mice were inoculated with luciferase tagged A375 cells as stated above. The tumors were left to establish and expand for 14 days before the study. […] Samples from 3 mice per treatment group were collected at 1, 12, 24, and 48 hours. To test the plasma samples, the mice were anesthetized, and blood was collected into a tube with EDTA-K2, centrifuged, transferred to a fresh tube, and stored frozen. Following blood collection, the mice were perfused for fifteen minutes, decapitated, and the brain was collected and frozen. The harvested plasma and brain were processed for pharmacokinetics analysis by LC/MS/MS with a concentration range of 1-1,000 ng/mL and pharmacodynamics analysis by Western Blot. The concentrations of Compound 1 and encorafenib found in the plasma is shown in FIG. 42, and the concentration found in the brain is shown in FIG. 43.
# [4] = Salt screening by re-slurry; type: physicochemical
# [5] = Crystallization by addition of anti-solvent; type: physicochemical
# Experimental: About 50 mg of Compound 1 Form A was dissolved in the minimal amount of selected good solvents at ambient temperature (about 20-25° C.). Obtained solutions were filtered through a 0.45 μm syringe membrane filter. […] Precipitates were collected by centrifugation filtration through a 0.45 μm nylon membrane filter at 14,000 rpm. Solid parts (wet cakes) were investigated by XRPD.
# [6] = Crystallization by vapor diffusion; type: physicochemical
# Experimental: About 50 mg of Compound 1 Form A was dissolved in the minimal amount of selected solvents at ambient temperature (about 20-25° C.). Obtained solutions were filtered through a 0.45 μm syringe membrane filter. […] Then these 8 mL lid less vials were placed to 40 mL glass vials. To the 40 mL vials were added anti-solvents. Then these 40 mL vials were capped tightly and placed at ambient condition for up to 21 days. Precipitates were collected by centrifugation filtration through a 0.45 μm nylon membrane filter at 14,000 rpm. Solid parts (wet cakes) were investigated by XRPD.
# [7] = pH 4.5 acetate buffer (50 mM), 37° C.
# [8] = pH 6.8 phosphate buffer (50 mM), 37° C.
# [9] = simulated gastric fluid, SGF, pH 2.0, 37° C.
# [10] = simulated gastric fluid, pH 1.2 HCl solution (0.2N), 37° C.
# [11] = Acetone (3) / anti-solvent Heptane (2) mL
# Sequence of BRAF^V600E (P15056 whole entry V600E): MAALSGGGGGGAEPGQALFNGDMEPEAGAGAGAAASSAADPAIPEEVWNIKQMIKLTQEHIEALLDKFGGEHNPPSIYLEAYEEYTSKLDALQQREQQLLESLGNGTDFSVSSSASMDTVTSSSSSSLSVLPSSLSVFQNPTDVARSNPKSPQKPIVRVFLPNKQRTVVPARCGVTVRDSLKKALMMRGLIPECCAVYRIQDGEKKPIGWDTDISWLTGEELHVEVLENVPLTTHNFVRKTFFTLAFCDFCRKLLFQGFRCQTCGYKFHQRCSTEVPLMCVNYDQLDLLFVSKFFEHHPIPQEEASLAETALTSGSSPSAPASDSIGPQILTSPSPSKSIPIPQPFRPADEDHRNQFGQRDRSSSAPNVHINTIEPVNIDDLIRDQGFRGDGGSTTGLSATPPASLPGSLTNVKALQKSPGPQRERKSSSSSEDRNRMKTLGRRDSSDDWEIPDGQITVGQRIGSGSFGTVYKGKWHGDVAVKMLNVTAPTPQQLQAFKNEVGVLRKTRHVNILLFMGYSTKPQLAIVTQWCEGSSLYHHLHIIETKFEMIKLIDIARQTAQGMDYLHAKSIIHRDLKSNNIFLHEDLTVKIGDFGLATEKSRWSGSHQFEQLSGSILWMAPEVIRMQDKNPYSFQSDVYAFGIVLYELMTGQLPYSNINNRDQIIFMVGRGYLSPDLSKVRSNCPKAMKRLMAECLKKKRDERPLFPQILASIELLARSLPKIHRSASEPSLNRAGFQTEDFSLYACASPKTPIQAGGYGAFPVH
smiles,measurement,setting,value
CCN(C)S(=O)(=O)Nc1ccc(F)c(Oc2ccc3ncn([C@H]4COC5(CCN(C(=O)CC6(O)CCN(c7cc8c(cc7F)c(N7CCC(=O)NC7=O)nn8C)CC6)CC5)C4)c(=O)c3c2)c1C#N [Compound 1 Form B],XRPD after wet granulation,[1]; granulation solvent Ethanol,Form B; no crystallinity decrease.
same,XRPD after wet granulation,[1]; granulation solvent Water,Form B; no crystallinity decrease.
same,Crystallinity change after wet granulation,[1]; in the presence of water or ethanol,no changes in crystallinity
same,pH of supernatant 24 h,"[2]; FaSSIF-v1, pH 6.5, 37° C.",pH = 6.5
same,Solubility 2 h,"[2]; FaSSIF-v1, pH 6.5, 37° C.",<LOQ
same,Solubility 24 h,"[2]; FaSSIF-v1, pH 6.5, 37° C.",<LOQ
same,pH of supernatant 24 h,"[2]; FeSSIF-v1, pH 5.0, 37° C.",(pH = 5.0)
same,pH of supernatant 24 h,"[2]; SGF, pH 2.0, 37° C.",(pH = 2.1)
same,pH of supernatant 24 h,"[2]; Water, 37° C.",(pH = 7.0)
same,Solubility 2 h,"[2]; Water, 37° C.",<LOQ
same,pH range of morphic form stability in aqueous media,[2]; aqueous media,1.2 to 7.0
same,pH dependence of solubility,"[2]; aqueous media, 37° C.",pH dependent solubility
same,pH of supernatant 24 h,"[2]; pH 1.2 HCl solution (0.2N), 37° C.",(pH = 0.9)
same,pH of supernatant 24 h,[2]; [7],(pH = 4.5)
same,Solubility 2 h,[2]; [7],<LOQ
same,Solubility 24 h,[2]; [7],<LOQ
same,pH of supernatant 24 h,[2]; [8],(pH = 6.8)
same,Solubility 2 h,[2]; [8],<LOQ
same,Solubility 24 h,[2]; [8],<LOQ
same,Form change after solubility test,"[2]; residual solids, 24 hours, XRPD",no form change
same,solubility at 2 h,[2]; [9],3.8 µg/mL
same,solubility at 24 h,[2]; [9],5.2 µg/mL
same,solubility at 2 h,[2]; [10],11.7 µg/mL
same,solubility at 24 h,[2]; [10],28 µg/mL
same,solubility at 2 h,"[2]; FeSSIF-v1, pH 5.0, 37° C.",4.8 µg/mL
same,solubility at 24 h,"[2]; FeSSIF-v1, pH 5.0, 37° C.",6.7 µg/mL
same,solubility at 24 h,"[2]; Water, 37° C.",4.6 µg/mL
"CCN(C)S(=O)(=O)Nc1ccc(F)c(Oc2ccc3ncn([C@H]4COC5(CCN(C(=O)CC6(O)CCN(c7cc8c(cc7F)c(N7CCC(=O)NC7=O)nn8C)CC6)CC5)C4)c(=O)c3c2)c1C#N [Compound 1, (3R)-3-[6-[2-cyano-3-[[ethyl(methyl)sulfamoyl]amino]-6-fluorophenoxy]-4-oxoquinazolin-3-yl]-8-[2-[1-[3-(2,4-dioxo-1,3-diazinan-1-yl)-5-fluoro-1-methylindazol-6-yl]-4-hydroxypiperidin-4-yl]acetyl]-1-oxa-8-azaspiro[4.5]decane]",BRAF protein degraded,BRAF^V600E,74%
same,DC50,BRAF^V600E,14 nM
same,Blood brain barrier penetration,[3],high level of blood brain barrier penetration
CCN(C)S(=O)(=O)Nc1ccc(F)c(Oc2ccc3ncn([C@H]4COC5(CCN(C(=O)CC6(O)CCN(c7cc8c(cc7F)c(N7CCC(=O)NC7=O)nn8C)CC6)CC5)C4)c(=O)c3c2)c1C#N [Compound 1 Form A],Re-slurry result,"[4]; Ca(OH)2, Ethyl Acetate",Almost amorphous
same,Re-slurry result,"[4]; Choline, Ethyl Acetate",Sticky material
same,Re-slurry result,"[4]; Choline, MTBE",Sticky material
same,Re-slurry result,"[4]; Choline, Toluene",Sticky material
same,Re-slurry result,"[4]; Methylglucamine, Ethyl Acetate",Form A
same,Results (After 2 hours),"[5]; 1,4-Dioxane (0.1) / anti-solvent Water (0.2) mL",Sticky material
same,Results (After 2 hours),[5]; [11],Low crystallinity
same,XRPD,[5]; [11],Form A
same,Results (After 2 hours),[5]; DCM (0.2) / anti-solvent Heptane (0.2) mL,Sticky material
same,Results (After 2 hours),[5]; THF (0.2) / anti-solvent Water (0.2) mL,Oil material
same,Results,[6]; 2-MeTHF (8.0) / MTBE (32.0) mL,Few solids
same,Results,[6]; Acetone (2.5) / MTBE (10.0) mL,Oil material
same,Results,[6]; Acetonitrile (3.0) / MTBE (12.0) mL,Oil material
same,Results,[6]; DMSO (0.2) / Ethanol (0.8) mL,Oil material
